Experimental data as given in patent US8957074B2 (Novartis AG, priority 2010, dated 2015).
pIC50: −log10 of the molar value. Read-outs that look alike come from different tables or passages of the source.

Legend:
[1] = biological target: CDK1/cyclin B (Homo sapiens (Human), UniProt P06493); assay: CDK1/cyclin B enzymatic activity assay (IMAP-FP); format: biochemical; conditions: […] CDK1/cyclin B, 100 nM Tamra Histone-H1 peptide, 20 μM ATP, 120 min at room temperature; read-out: Biochemical CDK1 enzyme IC50
From the text: CDK1/Cyclin B Enzymatic Activity Assay
A 384-well microtiter IMAP-FP™ (Molecular Devices Trade Mark Technology) endpoint assay was used for CDK1/cyclin B kinase activity measurements. The same assay was used for IC50 determination of small molecule inhibitors.

[2] = test system: phosphorylation of pRb at the Ser780 site in JeKo-1 mantle cell lymphoma cells; assay: CDK4 cellular assay: ELISA of pRb phosphorylation at Ser780 in JeKo-1 cells; format: cell-based
[3] = biological target: CDK4/cyclin D1 (Homo sapiens (Human), UniProt P11802); assay: CDK4/cyclin D1 enzymatic activity assay (TR-FRET, phosphorylation of pRb at Ser780); format: biochemical; conditions: 0.3 nM CDK4/cyclin D1, 150 nM biotin-pRb (773-924), 3 μM ATP, 60 min at 22° C.; read-out: Biochemical CDK4 enzyme IC50
Summary of the method: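 Phosphorylation at pRb Ser780, detected by TR-FRET, gave IC50s and kinetics. Enzyme: baculovirus/Sf21-expressed human CDK4/cyclin D1. ATP at 3 μM initiated the reaction; EDTA (pH 8.0) stopped it after 60 min at 22° C.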

[4] = Homo sapiens, JeKo-1, JeKo-1 cells, p-pRb % inhibition adjusted with total pRb levels, read-out: Normalized cellular ppRb inhibition IC50
[5] = Homo sapiens, JeKo-1, JeKo-1 cells, p-pRb Ser780 ELISA, non-normalized, read-out: Cellular ppRb inhibition IC50

Chain of CDK1/cyclin B (P06493 whole entry, species assumed): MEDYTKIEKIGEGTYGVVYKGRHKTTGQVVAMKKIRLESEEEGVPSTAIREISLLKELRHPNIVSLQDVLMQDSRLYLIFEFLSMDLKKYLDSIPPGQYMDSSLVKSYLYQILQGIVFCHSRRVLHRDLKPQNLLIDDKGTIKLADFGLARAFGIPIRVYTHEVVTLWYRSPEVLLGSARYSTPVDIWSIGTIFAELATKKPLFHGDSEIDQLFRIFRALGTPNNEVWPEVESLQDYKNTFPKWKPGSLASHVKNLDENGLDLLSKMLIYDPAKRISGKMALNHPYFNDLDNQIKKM
Chain of CDK1/cyclin B (P14635 whole entry partner, species assumed): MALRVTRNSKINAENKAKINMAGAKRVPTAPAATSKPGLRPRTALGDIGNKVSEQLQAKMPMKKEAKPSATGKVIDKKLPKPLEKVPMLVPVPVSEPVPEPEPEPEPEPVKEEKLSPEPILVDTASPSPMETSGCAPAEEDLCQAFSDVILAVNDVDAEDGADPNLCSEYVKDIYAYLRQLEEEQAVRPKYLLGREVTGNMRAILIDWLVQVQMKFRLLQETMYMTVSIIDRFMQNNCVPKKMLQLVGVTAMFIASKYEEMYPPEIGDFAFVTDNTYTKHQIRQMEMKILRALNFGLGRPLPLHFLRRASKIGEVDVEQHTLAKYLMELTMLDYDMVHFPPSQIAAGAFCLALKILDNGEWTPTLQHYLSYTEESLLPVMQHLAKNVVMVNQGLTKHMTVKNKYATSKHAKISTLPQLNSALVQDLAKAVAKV
Chain of CDK4/cyclin D1 (P11802 whole entry): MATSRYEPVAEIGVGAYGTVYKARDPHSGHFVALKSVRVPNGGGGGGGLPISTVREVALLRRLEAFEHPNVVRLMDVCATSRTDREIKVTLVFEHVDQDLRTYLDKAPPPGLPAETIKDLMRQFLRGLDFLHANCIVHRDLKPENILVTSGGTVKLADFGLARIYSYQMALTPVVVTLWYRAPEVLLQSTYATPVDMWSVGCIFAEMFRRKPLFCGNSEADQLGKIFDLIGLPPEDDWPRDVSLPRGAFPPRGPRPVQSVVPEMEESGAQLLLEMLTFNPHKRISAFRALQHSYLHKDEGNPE
Chain of CDK4/cyclin D1 (P24385 whole entry partner): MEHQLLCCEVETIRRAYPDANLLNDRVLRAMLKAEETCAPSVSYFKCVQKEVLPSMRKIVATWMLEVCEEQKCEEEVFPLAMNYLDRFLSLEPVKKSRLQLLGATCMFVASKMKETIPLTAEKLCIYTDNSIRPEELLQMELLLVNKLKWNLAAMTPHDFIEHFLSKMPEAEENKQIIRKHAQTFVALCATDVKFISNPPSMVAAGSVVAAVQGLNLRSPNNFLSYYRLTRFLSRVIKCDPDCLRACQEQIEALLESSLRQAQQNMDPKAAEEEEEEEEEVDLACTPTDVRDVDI

CN(C)C(=O)c1cc2cnc(Nc3ccc(N4C[C@@H]5CC[C@H](CC4=O)N5)cn3)nc2n1C1CCCC1 [Example 124, 7-Cyclopentyl-2-[5-((1S,6R)-4-oxo-3,9-diaza-bicyclo[4.2.1]non-3-yl)-pyridin-2-ylamino]-7H-pyrrolo[2,3-d]pyrimidine-6-carboxylic acid dimethylamide]
pIC50 [1]: < 4.82 | pIC50 ([2]; JeKo-1 cells, p-pRb % inhibition adjusted with total pRb levels, read-out: Normalized cellular ppRb inhibition IC50): 6.58 | pIC50 ([2]; JeKo-1 cells, p-pRb Ser780 ELISA, non-normalized, read-out: Cellular ppRb inhibition IC50): 6.80 | pIC50 [3]: 7.64

CNC(=O)c1cc2cnc(Nc3ccc(N4C[C@H]5CC[C@@H](CC4=O)N5C)cn3)nc2n1C1CCCC1 [Example 125, 7-cyclopentyl-2-[5-((1R,6S)-9-methyl-4-oxo-3,9-diaza-bicyclo[4.2.1]non-3-yl)-pyridin-2-ylamino]-7H-pyrrolo[2,3-c]pyrimidine-6-carboxylic acid methylamide]
pIC50 [1]: < 4.82 | pIC50 ([2]; Homo sapiens, JeKo-1 cells, p-pRb % inhibition adjusted with total pRb levels, read-out: Normalized cellular ppRb inhibition IC50): 6.79 | pIC50 ([2]; Homo sapiens, JeKo-1 cells, p-pRb Ser780 ELISA, non-normalized, read-out: Cellular ppRb inhibition IC50): 7.08 | pIC50 [3]: 7.82

CN(C)C(=O)c1cc2cnc(Nc3ccc(N4CC5CCC(C4)N5)nn3)nc2n1C1CCCCC1 [Example 126, 7-Cyclohexyl-2-[6-(3,8-diaza-bicyclo[3.2.1]oct-3-yl)-pyridazin-3-ylamino]-7H-pyrrolo[2,3-d]pyrimidine-6-carboxylic acid dimethylamide]
pIC50 [1]: < 4.82 | pIC50 [2, 4]: 7.31 to 7.35 | pIC50 [2, 5]: 7.49 to 7.64 | pIC50 [3]: 7.51 to 8.00

CN(C)C(=O)c1cc2cnc(Nc3ccc(N4CC5CCC(CC4=O)N5)cn3)nc2n1-c1ccccc1 (stereo not drawn) [Example 128, 2-[5-(4-oxo-3,9-diaza-bicyclo[4.2.1]non-3-yl)-pyridin-2-ylamino]-7-phenyl-7H-pyrrolo[2,3-d]pyrimidine-6-carboxylic acid dimethylamide]
pIC50 [1]: < 4.82 | pIC50 [2, 4]: 6.85 | pIC50 [2, 5]: 7.09 | pIC50 [3]: 8.05

CN(C)C(=O)c1cc2cnc(Nc3ccc(N4C[C@@H]5CC[C@H](CC4=O)N5)cn3)nc2n1-c1ccccc1 [Example 129, 2-[5-((1S,6R)-4-Oxo-3,9-diaza-bicyclo[4.2.1]non-3-yl)-pyridin-2-ylamino]-7-phenyl-7H-pyrrolo[2,3-d]pyrimidine-6-carboxylic acid dimethylamide]
pIC50 [1]: < 4.82 | pIC50 [2, 4]: 6.66 | pIC50 [2, 5]: 6.71 | pIC50 [3]: 7.32

CN(C)C(=O)c1cc2cnc(Nc3ccc(N4C[C@H]5CC[C@@H](CC4=O)N5)cn3)nc2n1-c1ccccc1 [Example 130, 2-[5-((1R,6S)-4-oxo-3,9-diaza-bicyclo[4.2.1]non-3-yl)-pyridin-2-ylamino]-7-phenyl-7H-pyrrolo[2,3-d]pyrimidine-6-carboxylic acid dimethylamide]
pIC50 [1]: < 4.82 | pIC50 [2, 4]: 7.35 to 7.66 | pIC50 [2, 5]: 7.59 to 7.72 | pIC50 [3]: 8.05

CN(C)C(=O)c1cc2cnc(Nc3ccc(N4CC5CCC(CC4=O)N5)cn3)nc2n1C1CCCCC1 (stereo not drawn) [Example 131, 7-cyclohexyl-N,N-dimethyl-2-(5-(4-oxo-3,9-diazabicyclo[4.2.1]nonan-3-yl)pyridin-2-ylamino)-7H-pyrrolo[2,3-d]pyrimidine-6-carboxamide]
pIC50 [1]: < 4.82 | pIC50 [2, 4]: 7.62 | pIC50 [2, 5]: 7.85 | pIC50 [3]: 8.40

CN(C)C(=O)c1cc2cnc(Nc3ccc(N4C[C@@H]5CC[C@H](CC4=O)N5)cn3)nc2n1C1CCCCC1 [Example 132, 7-Cyclohexyl-2-[5-((1S,6R)-4-oxo-3,9-diaza-bicyclo[4.2.1]non-3-yl)-pyridin-2-ylamino]-7H-pyrrolo[2,3-d]pyrimidine-6-carboxylic acid dimethylamide]
pIC50 [1]: < 4.82 | pIC50 [2, 4]: 7.33 to 7.55 | pIC50 [2, 5]: 7.30 to 7.68 | pIC50 [3]: 7.72

CN(C)C(=O)c1cc2cnc(Nc3ccc(N4C[C@H]5CC[C@@H](CC4=O)N5)cn3)nc2n1C1CCCCC1 [Example 133, 7-Cyclohexyl-2-[5-((1R,6S)-4-oxo-3,9-diaza-bicyclo[4.2.1]non-3-yl)-pyridin-2-ylamino]-7H-pyrrolo[2,3-d]pyrimidine-6-carboxylic acid dimethylamide]
pIC50 [1]: 4.87 | pIC50 [2, 4]: 8.15 | pIC50 [2, 5]: 8.30 | pIC50 [3]: > 8.30
